How the values were obtained:
Type in all cases: cell-based, human
NCI-H249 SCLC cells [1] = experiment: Cell growth of NCI-H249 SCLC cells (MTT assay); conditions: for cell growth after compound treatment: NCI-H249 SCLC cells, 5 days, FIG. 3b
Experimental: (§1) MTT assays were performed as described (Sriuranpong (2002), supra).

NCI-H157 NSCLC cells = experiment: Cell growth of NCI-H157 NSCLC cells (MTT assay); conditions: 5 days, FIG. 3c
Experimental: as §1

NCI-H249 SCLC cells [2] = experiment: Cell cycle analysis in NCI-H249 cells; conditions: unsynchronized NCI-H249 SCLC cells; 5 μM; 72 h; FIG. 3e
NCI-H249 SCLC cells [3] = experiment: Cleaved PARP expression (apoptosis) by immunoblot; conditions: 5 μM, 72 h, FIG. 3f
Experimental: Whole-cell lysates were sonicated in 2% SDS/50 mM TrisHCl, pH 8. […] Anti-cleaved PARP was obtained from Promega.

Ptch mRNA = Ptch mRNA expression by northern blot analysis; conditions: NCI-H249 SCLC cells, FIG. 3g
[4] = test system: BMP4, nestin and ASH-1 transcripts; experiment: RT-PCR analysis of transcripts in NCI-H249 SCLC cells; conditions: 48 h, FIG. 3h
Experimental: Total cellular RNA was treated with DNAse, reverse transcribed, and amplified for 31 cycles at an annealing temperature of 55° C. Primers used were: […]

NCI-H249 SCLC cells [5] = experiment: Soft agar clonogenicity of NCI-H249 SCLC cells; conditions: FIG. 4a, b

Row | Compound | cell growth after compound treatment (NCI-H249 SCLC cells [1]) | cell growth after compound treatment (NCI-H157 NSCLC cells) | growth inhibition by cyclopamine in cells stably expressing Flag-tagged GLI-1 (NCI-H249 SCLC cells [1]; NCI-H249 SCLC cells stably transfected with Flag-Gli1, MTT, FIG. 3d) | growth inhibition by cyclopamine in cells expressing GLI-1 mutant lacking the zinc finger DNA-binding domain (NCI-H249 SCLC cells [1]; NCI-H249 SCLC cells stably transfected with Flag-Gli1ZFD, MTT, FIG. 3d) | cell cycle effect (NCI-H249 SCLC cells [2]) | apoptosis (cleaved PARP) (NCI-H249 SCLC cells [3]) | Ptch mRNA expression (Ptch mRNA) | BMP4 expression [4] | human ASH-1 expression [4] | nestin expression [4] | soft agar clonogenicity effect in cells overexpressing GLI-1 (NCI-H249 SCLC cells [5]; NCI-H249 SCLC cells stably transfected with Flag-Gli1, cyclopamine 5 μM) | soft agar clonogenicity (NCI-H249 SCLC cells [5]; NCI-H249 SCLC cells)
1 | CC1=C2C[C@H]3[C@@H](CC=C4CC(=O)CC[C@@]43C)[C@@H]2CC[C@]12O[C@@H]1C[C@H](C)CN(CCNC(=O)CCCCCNC(=O)CCc3ccccc3)[C@H]1[C@H]2C [KAAD-cyclopamine] | significant growth inhibition | None of KAAD-cyclopamine, cyclopamine or tomatidine was able to affect growth | – | – | – | – | – | – | – | – | – | –
2 | C[C@H]1CC[C@]2(NC1)O[C@H]1C[C@H]3[C@@H]4CC[C@H]5C[C@@H](O)CC[C@]5(C)[C@H]4CC[C@]3(C)[C@H]1[C@@H]2C [tomatidine] | no effect | None of KAAD-cyclopamine, cyclopamine or tomatidine was able to affect growth | – | – | – | – | – | – | – | – | – | –
3 | CC1=C2C[C@H]3[C@@H](CC=C4C[C@@H](O)CC[C@@]43C)[C@@H]2CC[C@]12O[C@@H]1C[C@H](C)CN[C@H]1[C@H]2C [cyclopamine] | – | – | protected NCI-H249 SCLC cells from growth inhibition | had no effect | arrest of the cell cycle in Go/G1 | increase in cleaved PARP | downregulation | inhibited expression | inhibited expression | inhibited expression | reversed | reduced soft agar clonogenicity

From US20080057071A1, “Use Of Hedgehog Pathway Inhibitors In Small-Cell Lung Cancer” (priority 2003, published 2008)
